According to US6001849A, “Furopyridine, thienopyridine pyrrolopyridine useful in controlling chemical synaptic transmission” (Abbott Laboratories, priority 1997, dated 1999):
Where a name gives a salt, the structure may show the parent alone. Read-outs that look alike come from different tables or passages of the source.

What was measured:
[1] = biological target: neuronal nicotinic acetylcholine receptors; assay: [3H]-cytisine ligand-receptor binding assay (crude synaptic membranes from whole rat brain); conditions: for binding to the nicotinic acetylcholine receptor (in words): preferred compounds
Description: For the purpose of identifying compounds as nicotinic acetylcholinergic agents which are capable of interacting with neuronal nicotinic acetylcholine receptors in the brain, a ligand-receptor binding assay was carried out as the initial screen. Compounds of the present invention were effective at interacting with neuronal nicotinic acetylcholine receptors as assayed for their ability to displace radioligand from neuronal nicotinic acetylcholine receptors labeled with [^3 H]-cytisine ([^3 H]-CYT).
A. Protocol For Determination of Nicotinic Acetylcholine Receptor Binding Potencies of Ligands
Binding of [^3 H]-CYT to nicotinic acetylcholine receptors was accomplished using crude synaptic membrane preparations from whole rat brain (Pabreza et al., Molecular Pharmacol., 1990, 39:9). Washed membranes were stored at -80° C. prior to use. Frozen aliquots were slowly thawed and resuspended in 20 volumes of buffer (containing: 120 mM NaCl, 5 mM KCl, 2 mM MgCl2, 2 mM CaCl2 and 50 mM Tris-Cl, pH 7.4 @4° C.). After centrifuging at 20,000×g for 15 minutes, the pellets were resuspended in 30 volumes of buffer. Homogenate (containing 125-150 μg protein) was added to triplicate tubes containing concentrations of test compound and [^3 H]-CYT (1.25 nM) in a final volume of 500 μL. Samples were incubated for 60 minutes at 4° C., then rapidly filtered through Whatman GF/B filters presoaked in 0.5% polyethylimine using 3×4 mL of ice-cold buffer. The filters were counted in 4 mL of Ecolume® (ICN). Nonspecific binding was determined in the presence of 10 μM (-)-nicotine and values were expressed as a percentage of total binding.

[2] = system: neuronal nicotinic acetylcholine receptors in IMR-32 cells; assay: 86Rb+ efflux assay in IMR-32 neuroblastoma cells; assay type: cell-based, human; conditions: for IMR-32 % Inhibition @ 10 μM / IMR-32 % Inhibition @ (30 μM): inhibition of efflux elicited by 100 μM (S)-nicotine; for IMR-32 % max: maximal response, percent relative to 100 μM (S)-nicotine
Description: B. Protocols for the Determination of Functional Effects of Nicotinic Acetylcholine Receptor Ligands on Synaptic Transmission
Experimental cells were seeded at a density of 500,000 cells/mL into a 24-well tissue culture dish. Plated cells were allowed to proliferate for at least 48 hours before loading with 2 μCi/mL of ^86 Rb^+ (35 Ci/mmol) overnigh at 37° C.

[3] = Table 1, [3H]-cytisine 1.25 nM, 4° C., 60 min, Ki by Cheng and Prusoff, read-out: [^3 H]-Cyt Binding
[4] = Table 2, [3H]-cytisine binding, read-out: Binding

Work on `c1cnc2oc([C@@H]3CCCN3)cc2c1` [Example 36, 2-(2-(S)-pyrrolidinyl)furo[2,3-b]pyridine hydrochloride] yielded a Ki [1, 3] of 611 nM.
For `Brc1cnc2cc([C@@H]3CCCN3)oc2c1` [Example 46, 6-bromo-2-(2-(S)-pyrrolidinyl)furo[3,2-b]pyridine dihydrochloride], the Ki [1, 3] was 468 nM.
Work on `Fc1ccc2oc([C@H]3C[C@@H]4CC[C@H]3N4)cc2n1` (relative stereo) [Example 136, (±)-2-(7-aza-2-exo-bicyclo[2.2.1]heptyl)-5-fluorofuro[3,2-b]pyridine hydrochloride] yielded a Ki [1, 4] of 2.4 nM.
`CN1[C@@H]2CC[C@@H](C2)[C@H]1c1cc2nc(Cl)ccc2o1` [Example 44, 2-((1R,4t)-2-aza-3-(S)-bicyclo[2.2.1]heptyl)-5-chloro-2-methylfuro[3,2-b]pyridine dihydrochloride] showed a Ki [1, 3] of 5 nM.
In the case of `Clc1ccc2oc([C@H]3N[C@@H]4CC[C@H]3C4)cc2n1` [Example 43, 2-((1R,4S)-2-aza-3-(S)-bicyclo[2.2.1]heptyl)-5-chloro-furo[3,2-b]pyridine dihydrochloride], the Ki [1, 3] is reported as 453 nM.
`Clc1nc2cc([C@H]3CCCN3)oc2cc1C=Cc1ccncc1` [Example 58, 5-chloro-2-(2-(R)-pyrrolidinyl)-6-(2-(4-pyridylethenyl)furo[3,2-b]pyridine hydrochloride] was tested, and the Ki [1, 4] was 0.31 nM and the “binding to the nicotinic acetylcholine receptor (in words)” value [1] was “most potent binders”.
For `c1cnc2cc(CN3CCCC3)oc2c1` [Example 22, 1-Pyrrolidinylmethyl-(2-furo[3,2-b]pyridine)], the Ki [1, 3] was 113 nM.
With `Cl.Cl.c1cc2cc([C@H]3CCCN3)oc2cn1` [Example 34, 2-(2-(R)-pyrrolidinyl)furo[2,3-c]pyridine dihydrochloride] the Ki [1, 3] was 1710 nM and the “IMR-32 % Inhibition @ 10 μM” value ([2]; Table 1) was 2.8%.
For `Clc1ccc2oc(C34CCCN3CCC4)cc2n1` [Example 23, 5-Chloro-2-(hexahydro-1H-7a-pyrrolizinyl)furo[3,2-b]pyridinehydrochloride], the Ki [1, 3] was 0.62 nM and the “binding to the nicotinic acetylcholine receptor (in words)” value [1] was “most potent binders”.
`Cl.Nc1cccc(-c2cc3oc([C@H]4CCCN4)cc3nc2Cl)c1` [Example 57, 6-(3-aminophenyl)-5-chloro-2-(2-(R)-pyrrolidinyl)furo[3,2-b]pyridine hydrochloride] gave a Ki [1, 4] of 0.83 nM and an IMR-32 % max ([2]; Table 2) of 22%.
`Clc1cnc2oc([C@@H]3CCCN3)cc2c1` [Example 13, 5-chloro-2-(2-(S)-pyrrolidinyl)-furo[2,3-b]pyridine hydrochloride] showed a Ki [1, 3] of 4440 nM.
Work on `Cc1ccc2oc([C@@H]3CCCN3)cc2n1` [Example 5, 5-methyl-2-(2-(S)-pyrrolidinyl)furo[3,2-b]pyridine dihydrochloride] yielded a Ki [1, 3] of 355 nM.
With `CN1CCC[C@@H]1c1cc2nc(Cl)c(Cl)cc2o1` [Example 40, 5,6-Dichloro-2-(1-methyl-2-(R)-pyrrolidinyl)furo[3,2-b]pyridine hydrochloride] the Ki [1, 3] was 32 nM.
Molecule `Cl.Cl.c1cc2cc([C@@H]3CCCN3)oc2cn1` [Example 9, 2-(2-(S)-pyrrolidinyl)furo[2,3-c]pyridine dihydrochloride] has a Ki [1, 3] of 250 nM and an IMR-32 % max ([2]; Table 1) of 83%.
`c1cnc2cc([C@H]3CC[C@@H]4CCCN43)oc2c1` [Example 20, exo-2-(Hexahydro-1H-3-(R)-pyrrolizinyl)furo[3,2-b]pyridine dihydrochloride] gave a Ki [1, 3] of 397 nM.
Work on `CN1CCC[C@@H]1c1cc2nc(Cl)ccc2o1` [Example 32, 5-chloro-2-(1-methyl-2-(R)-pyrrolidinyl)-furo[3,2-b]pyridinehydrochloride] yielded a Ki [1, 3] of 54 nM.
In the case of `CN1CCC[C@H]1c1cc2cccnc2o1` [Example 134, 2-(1-methyl-2-(S)-pyrrolidinyl)furo[2,3-b]pyidine hydrochloride], the Ki [1, 4] is reported as 6.9 nM.
Work on `Cc1ccc2sc(C34CCCN3CCC4)cc2n1` [Example 27, dihydrochloride] yielded a Ki [1, 3] of 27 nM.
`CN1CCC[C@@H]1c1cc2nc(Cl)c(-c3ccccc3)cc2o1` [Example 56, 5-chloro-2-(1-methyl-2-(R)-pyrrolidinyl)-6-phenyl furo[3,2-b]pyridine hydrochloride] showed a Ki [1, 4] of 12.9 nM.
Work on `Cc1ccc2oc([C@H]3CCCN3C)cc2n1` [Example 30, 5-methyl-2-(1-methyl-2-(R)-pyrrolidinyl)-furo[3,2-b]pyridinedihydrochloride] yielded a Ki [1, 3] of 101 nM.
For `c1cnc2cc([C@H]3N[C@@H]4CC[C@H]3C4)oc2c1` [Example 41, 2-((1R,4S)-2-aza-3-(S)-bicyclo[2.2.1]heptyl)-furo[3,2-b]pyridine dihydrochloride], the Ki [1, 3] was 81 nM.
For `Clc1cnc2cc([C@@H]3CCCN3)oc2c1` [Example 7, 6-chloro-2-(2-(S)-pyrrolidinyl)-furo[3,2-b]pyridine dihydrochloride], the Ki [1, 3] was 878 nM.
Molecule `c1cnc2cc([C@@H]3CC[C@H]4CCCN43)oc2c1` [Example 19, exo-2-(Hexahydro-1H-3-(S)-pyrrolizinyl)furo[3,2-b]pyridine dihydrochloride] has a Ki [1, 3] of 3950 nM.
“5-chloro-2-(1-methyl-2-(S)-pyrrolidinyl)-6-(3-pyridyl)furo[3,2-b]pyridine hydrochloride [Example 59]” gave a Ki [1, 4] of 672 nM.
`CN1CCC[C@H]1c1cc2ccncc2o1` [Example 10, 2-(1-methyl-2-(S)-pyrrolidinyl)furo[2,3-c]pyridine dihydrochloride] was tested, and the Ki [1, 3] was 207 nM.
Work on `CN1CCC[C@H]1c1cc2cc(Cl)cnc2o1` [Example 14, 5-chloro-2-(1-methyl-2-(S)-pyrrolidinyl)-furo[2,3-b]pyridinedihydrochloride] yielded a Ki [1, 3] of 181 nM.
For `c1cnc2cc([C@H]3CC[C@H]4CCCN43)oc2c1` [Example 18, endo-2-(Hexahydro-1H-3-(R)-pyrrolizinyl)furo[3,2-b]pyridine dihydrochloride], the Ki [1, 3] was 38 nM and the “IMR-32 % Inhibition @ (30 μM)” value ([2]; Table 1) was 55%.
Work on `CN1CCC[C@H]1c1cc2ncc(-c3ccccc3)cc2o1` [Example 54, 2-(1-methyl-2-(S)-pyrrrolidinyl)-6-phenylfuro[3,2-b]pyridinedihydrochloride] yielded a Ki [1, 4] of 104 nM.
`Cl.Clc1nc2cc([C@H]3CCCN3)oc2cc1Br` [Example 49, 6-bromo-5-chloro-2-(2-(R)-pyrrolidinyl)furo[3,2-b]pyridine hydrochloride] was tested, and the Ki [1, 3] was 2.6 nM, the “IMR-32 % Inhibition @ 10 μM” value ([2]; Table 1) was 10% and the IMR-32 % max ([2]; Table 1) was 1%.
In the case of `CN1CCC[C@H]1c1cc2cnccc2o1` [Example 37, 2-(1-methyl-2-(S)-pyrrolidinyl)furo[3,2-c]pyridine dihydrochloride], the Ki [1, 3] is reported as 1760 nM.
Work on `CN1CCC[C@H]1c1cc2ncc(Br)cc2o1` [Example 47, 6-bromo-2-(1-methyl-2-(S)-pyrrolidinyl)furo[3,2-b]pyridine dihydrochloride] yielded a Ki [1, 3] of 38 nM.
Work on `Clc1ccc2oc([C@H]3C[C@@H]4CC[C@H]3N4)cc2n1` (relative stereo) [Example 135, (±)-2-(7-aza-2-exo-bicyclo[2.2.1]heptyl)-5-chlorofuro[3,2-b]pyridine hydrochloride] yielded a Ki [1, 4] of 3.2 nM.
`Clc1ccc2oc([C@@H]3CCCN3)cc2n1` [Example 11, 5-chloro-2-(2-(S)-pyrrolidinyl)-furo[3,2-b]pyridine hydrochloride] gave a Ki [1, 3] of 58 nM.
For `c1cnc2cc([C@@H]3CC[C@@H]4CCCN43)oc2c1` [Example 21, endo-2-(Hexahydro-1H-3-(S)-pyrrolizinyl)furo[3,2-b]pyridine dihydrochloride], the Ki [1, 3] was 3300 nM, the “IMR-32 % Inhibition @ (30 μM)” value ([2]; Table 1) was 50% and the IMR-32 % max ([2]; Table 1) was 0%.
Molecule `Clc1cc2oc([C@@H]3CCCN3)cc2nc1Cl` [Example 25, 5,6-Dichloro-2-(2-(S)-pyrrolidinyl)furo [3,2-b]pyridine hydrochloride] has a Ki [1, 3] of 103 nM.
`c1cc2cc(C34CCCN3CCC4)oc2cn1` [Example 17, 2-(Hexahydro-1H-7a-pyrrolizinyl)furo[2,3-c]pyridine dihydrochloride] was tested, and the Ki [1, 3] was 88 nM.
`CN1CCC[C@@H]1c1cc2nc(Cl)c(Br)cc2o1` [Example 50, 6-bromo-5-chloro-2-(-1-methyl-2(R)-pyrrolidinyl)furo[3,2-b]pyridine hydrochloride] gave a Ki [1, 3] of 46 nM.
Work on `c1ccc(-c2cnc3cc([C@@H]4CCCN4)oc3c2)cc1` [Example 53, 2-((S)-pyrrolidinyl)-6-phenylfuro[3,2-b]pyridine dihydrochloride] yielded a Ki [1, 4] of 335 nM.
`CN1CCC[C@H]1c1cc2nccc(Cl)c2o1` [Example 51, 7-chloro-2-(1-methyl-2-(S)-pyrrolidinyl)furo[3,2-b]pyridine hydrochloride] showed a Ki [1, 3] of 443 nM.
In the case of `Clc1cc2oc([C@H]3N[C@@H]4CC[C@H]3C4)cc2nc1Cl` [Example 45, 2-((1R,4S)-2-aza-3-(S)-bicyclo[2.2.1]heptyl)-5,6-dichlorofuro[3,2-b]pyridine dihydrochloride], the Ki [1, 3] is reported as 205 nM.
